In experiment [1] the test system is primary human T-cells. Description: Proliferation assay after 5 days (CellTiter-Glo, CD3 stimulation; PBS counter screen). It is filed as cell-based. The note with it: CD3 stimulation; for Emax: 5 days, normalized to reference compound A1 as stimulator control = 100%, DMSO neutral control, read-out: Emax proliferation (% activation); for EC50: primary human T-cells, CellTiter-Glo after 5 days, EC50 of fitted sigmoidal curve, read-out: Tcell Proliferation CD3 EC50. The gist of the method: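 Read-out: CellTiter-Glo 2.0 luminescence (ATP ∝ cell number) at day 5 after compound addition. Compounds activating unstimulated cells or reducing viability flagged.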

Experiment [2] concerns primary human T-cells.
Method: As readouts for T-cell activation, IL2 secretion after 24 hours and proliferation after 5 days was measured. Increases in IL2 secretion and proliferation upon compound treatment were assessed as the % of the maximum of reference compound A1. […] As a counter screen and to make sure that no unwanted TCR-independent activation was triggered, PBS conditions were run for all compounds.
For coating of plates, PBS++ with PBS−− or PBS++ with CD3 antibody (concentration depending on donor and determined by CD3 titrations) was added 100 μl/well to Poly-D Lysine coated 96-well plates. Plates were sealed and incubated at room temperature for 3 hours on a table-top rocking platform. After incubation, plates were washed once with PBS−− and filled with 40 μl/well culture medium only. Compounds were then added (see next section) to medium only plates. After 3 hours of culturing the T-cells, cells were filtered through a cell strainer (Miltenyi Biotech, #130-041-407), counted again and concentration was adjusted to 1.25 Mio/ml.
Cells were then seeded 80 μl/well to the 40 μl/well including dispensed compounds according to plate layout. By adding cells, compounds were further diluted 1:3, and resulting in 100 k cells/120 μl/well. After 24 hours 40 μl of supernatant was collected carefully from the top while not disturbing the cells and transferred into a round bottom 96 well plate. Collected and frozen supernatant was used for detection of IL2 using the IL-2 Human ProQuantum Immunoassay Kit (Invitrogen) or using the Human IL-2 ELISA Kit (Thermo Fisher).
Compounds were added in a 5 or 6pt dose response with the Tecan D300e Digital Dispenser, all conditions 3 times more concentrated than the end-concentration, since cells are added afterwards (80 μl cells to 40 μl prepared medium with treatment). The DR was starting at 20 μM or 10 μM final top concentration and a dilution factor of 3.333. The positive control was the reference compound A1 that was added in a dose response as well, additionally to 3 wells of only 20 μM representing the positive stimulator control. All wells were normalized with DMSO to a final concentration of 0.6% (0.2% end-concentration).
The immunoassay is done following the manufacturer's manual (Invitrogen, #A35603). Additional information: For the immunoassay, MicroAmp™ EnduraPlate™ Optical 384-Well plates are used. Frozen supernatant is thawed and centrifuged for 5 minutes at 1000×g, both steps at 4° C. After centrifugation, required sample amount is taken from the top, and in a separate LightCycler V-bottom plate (working plate) diluted with assay dilution buffer, dilution factor depending on the PBS or CD3 condition but at least 1:3. IL-2 standard and blanks are prepared in the same V-bottom plate, standard with a range of 0.0128-5000 pg/ml (extended version). After preparation, 5 μl of sample dilutions or standard/blanks are transferred to the optical 384-well plate (assay plate) and the 10 μl reaction protocol is being followed. For measurement, the QuantStudio 12K Flex system is used.
ELISA is done following the manufacturer's manual (Thermo Fisher Scientific, #88-7025-88). Additional information: For the ELISA Nunc MaxiSorp 96 well plates are used. Frozen supernatant is thawed and centrifuged for 5 minutes at 1000×g, both steps at 4° C. After that, required sample amount is taken from the top, and in a separate V-bottom plate diluted with ELISA diluent, dilution factor depending on the PBS or CD3 condition. IL-2 standard and blanks are prepared in the same V-bottom plate. After preparation, 50 μl of sample dilutions and 100 μl of standard or blanks are transferred to the Nunc plates.
CD3 and PBS plates were analysed separately in Genedata Screener using Roche Normalization PCT_POS_CTRL with DMSO set as Neutral Control and 20 μM of the reference compound A1 set as Stimulator Control/100%.
For CD3 conditions EC50 and Emax of the fitted sigmoidal curve were reported.

This note sets out measurements from patent publication US20240368150A1 (Hoffmann-La Roche Inc., priority 2021, published 2024).

Structures can show the parent of a compound that is named as a salt. Where two headings read alike, the source gives them in different places.

Turning to `COC(=O)N1CC2CC(c3nc(-c4cc5c(cc4F)[S+]([O-])C[C@H](N)C(=O)N5Cc4ccc(OC(F)(F)C(F)F)cc4)no3)(C2)C1` (stereo partly drawn) [Example 511, methyl 1-[3-[(3R)-3-amino-8-fluoro-1,4-dioxo-5-[[4-(1,1,2,2-tetrafluoroethoxy)phenyl]methyl]-2,3-dihydro-1λ^4,5-benzothiazepin-7-yl]-1,2,4-oxadiazol-5-yl]-3-azabicyclo[3.1.1]heptane-3-carboxylate], in the experiment on primary human T-cells [1] (Homo sapiens, T-cell, 120 h), the Emax is 104% and the EC50 was 6.62 µM. In the experiment on primary human T-cells [2], the EC50 was found to be 7.82 µM.

For `COC(C)(C)c1nnc(-c2ccc3c(c2)N(Cc2ccc(Cl)cc2)C(=O)[C@@H](N)CS3(=O)=O)o1` [Example 368], in the experiment with primary human T-cells [1] (Homo sapiens, T-cell, 120 h), the Emax was 103% and the EC50 amounted to 6.56 µM. In the experiment with primary human T-cells [2], the EC50 was 5.55 µM.

In the case of `CN(C)C(=O)c1nnc(-c2cc3c(cc2F)S(=O)(=O)C[C@H](N)C(=O)N3Cc2ccc(Cl)cc2)o1` [Example 87, N,N-dimethyl-5-[(3R)-3-amino-5-[(4-chlorophenyl)methyl]-8-fluoro-1,1,4-trioxo-2,3-dihydro-1λ^6,5-benzothiazepin-7-yl]-1,3,4-oxadiazole-2-carboxamide], in the experiment on primary human T-cells [1] (Homo sapiens, T-cell, 120 h), the Emax turned out to be 82% and the EC50 came out at 2.74 µM. The molecule also yielded an EC50 in the experiment with primary human T-cells [2] of 1.53 µM.

Turning to `CC(C)(C)c1nnc(-c2ccc3c(c2)N(Cc2ccc(OCC4CCOCC4)cc2)C(=O)[C@@H](N)CS3(=O)=O)o1` [Example 433, (3R)-3-amino-7-(5-tert-butyl-1,3,4-oxadiazol-2-yl)-1,1-dioxo-5-[[4-(tetrahydropyran-4-ylmethoxy)phenyl]methyl]-2,3-dihydro-1λ^6,5-benzothiazepin-4-one], in the experiment on primary human T-cells [1] (Homo sapiens, T-cell, 120 h), the Emax is 105% and the EC50 was 4.79 µM. This molecule yielded an EC50 in the experiment with primary human T-cells [2] of 5.6 µM.

`CN(C)C(=O)c1nc(-c2cc3c(cc2F)S(=O)(=O)C[C@H](N)C(=O)N3Cc2ccc(OC(F)(F)C(F)F)cc2)no1` [Example 352, 3-[(3R)-3-amino-8-fluoro-1,1,4-trioxo-5-[[4-(1,1,2,2-tetrafluoroethoxy)phenyl]methyl]-2,3-dihydro-1λ^6,5-benzothiazepin-7-yl]-N,N-dimethyl-1,2,4-oxadiazole-5-carboxamide]: in the experiment with primary human T-cells [1] (Homo sapiens, T-cell, 120 h), the Emax is 100% and the EC50 was found to be 0.768 µM. In the experiment on primary human T-cells [2], the EC50 worked out at 5.74 µM.

Take `N[C@H]1CS(=O)(=O)c2cc(F)c(-c3nnc(C4CCCC4(F)F)o3)cc2N(Cc2ccc(Cl)cc2)C1=O` (stereo partly drawn) [Example 76, (3R)-3-Amino-5-[(4-chlorophenyl)methyl]-7-[5-(2,2-difluorocyclopentyl)-1,3,4-oxadiazol-2-yl]-8-fluoro-1,1-dioxo-2,3-dihydro-1λ^6,5-benzothiazepin-4-one]: in the experiment with primary human T-cells [1] (Homo sapiens, T-cell, 120 h), the Emax was 173% and the EC50 was 1.08 µM. The same molecule yielded an EC50 in the experiment on primary human T-cells [2] of 0.749 µM.

Take `CC(C)(C)c1nc(-c2cc3c(cc2F)[S+]([O-])C[C@H](N)C(=O)N3Cc2ccc(Cl)cc2)no1` (single isomer, unassigned; epimer a) [Example 340]: the Emax with primary human T-cells [1] (Homo sapiens, T-cell, 120 h) is 121%. The EC50 is 1.35 µM with primary human T-cells [1] and 3.08 µM in the experiment with primary human T-cells [2].

Take `CN=S1(=O)C[C@H](N)C(=O)N(Cc2ccc(OC(F)(F)F)cc2)c2cc(-c3nnc(C(C)(C)C)o3)c(F)cc21` (stereo partly drawn) [Example 519, (3R)-3-amino-7-(5-tert-butyl-1,3,4-oxadiazol-2-yl)-8-fluoro-1-methylimino-1-oxo-5-[[4-(trifluoromethoxy)phenyl]methyl]-2,3-dihydro-1λ^6,5-benzothiazepin-4-one]: in the experiment on primary human T-cells [1] (Homo sapiens, T-cell, 120 h), the Emax was 72% and the EC50 is 4.37 µM. For the same molecule, the EC50 with primary human T-cells [2] is 5.53 µM.

As to `CC(C)(C)c1nnc(-c2cc3c(cc2O)S(=O)(=O)C[C@H](N)C(=O)N3Cc2ccc(Cl)cc2)o1` [Example 273, (3R)-3-amino-7-(5-tert-butyl-1,3,4-oxadiazol-2-yl)-5-[(4-chlorophenyl)methyl]-8-hydroxy-1,1-dioxo-2,3-dihydro-1λ^6,5-benzothiazepin-4-one], the Emax with primary human T-cells [1] (Homo sapiens, T-cell, 120 h) is 61%. Besides, the EC50 came to 3.19 µM in the experiment on primary human T-cells [1] (Homo sapiens, T-cell, 120 h) and 7.21 µM with primary human T-cells [2].

In the case of `CC(C)(C)c1nnc(-c2ccc3c(c2)N(Cc2ccc(OC(F)(F)F)cc2)C(=O)[C@@H](N)CS3(=O)=O)o1` [Example 360, (3R)-3-amino-7-(5-tert-butyl-1,3,4-oxadiazol-2-yl)-1,1-dioxo-5-[[4-(trifluoromethoxy)phenyl]methyl]-2,3-dihydro-1λ^6,5-benzothiazepin-4-one], in the experiment with primary human T-cells [1] (Homo sapiens, T-cell, 120 h), the Emax was 103% and the EC50 was determined as 0.384 µM. In the experiment with primary human T-cells [2], this molecule came in with an EC50 of 0.922 µM.

In the case of `C#CCC(C)(C)c1nnc(-c2cc3c(cc2F)S(=O)(=O)C[C@H](N)C(=O)N3Cc2ccc(OC(F)(F)F)cc2)o1` [Example 450, (3R)-3-amino-7-[5-(1,1-dimethylbut-3-ynyl)-1,3,4-oxadiazol-2-yl]-8-fluoro-1,1-dioxo-5-[[4-(trifluoromethoxy)phenyl]methyl]-2,3-dihydro-1λ^6,5-benzothiazepin-4-one], in the experiment with primary human T-cells [1] (Homo sapiens, T-cell, 120 h), the Emax is 114% and the EC50 came out at 0.0715 µM. For the same molecule, the EC50 in the experiment on primary human T-cells [2] stood at 0.0731 µM.

Consider `CN[C@@H](C)C(=O)N[C@H]1CS(=O)(=O)c2cc(F)c(-c3nnc(CC(F)(F)F)o3)cc2N(Cc2ccc(OC(F)(F)F)cc2)C1=O` [Example 61, (2S)—N-[(3R)-8-fluoro-1,1,4-trioxo-7-[5-(2,2,2-trifluoroethyl)-1,3,4-oxadiazol-2-yl]-5-[[4-(trifluoromethoxy)phenyl]methyl]-2,3-dihydro-1λ^6,5-benzothiazepin-3-yl]-2-(methylamino)propanamide], for which, in the experiment with primary human T-cells [1] (Homo sapiens, T-cell, 120 h), the Emax was 144% and the EC50 was determined as 0.625 µM. Moreover, the EC50 with primary human T-cells [2] worked out at 1.91 µM.

On to `CC1(c2nnc(-c3cc4c(cc3F)S(=O)(=O)C[C@H](N)C(=O)N4Cc3ccc(Cl)cc3)o2)CNC1` [Example 102, (3R)-3-amino-5-[(4-chlorophenyl)methyl]-8-fluoro-7-[5-(3-methylazetidin-3-yl)-1,3,4-oxadiazol-2-yl]-1,1-dioxo-2,3-dihydro-1λ^6,5-benzothiazepin-4-one], for which the Emax in the experiment on primary human T-cells [1] (Homo sapiens, T-cell, 120 h) was determined as 65%. The EC50 with primary human T-cells [1] (Homo sapiens, T-cell, 120 h) is 7.69 µM; in the experiment on primary human T-cells [2], above 10 µM.

Turning to `COC(=O)N1CC(c2nnc(-c3cc4c(cc3F)S(=O)(=O)C[C@H](N)C(=O)N4Cc3ccc(Cl)cc3)o2)CC(F)(F)C1` (stereo partly drawn) [Example 163, methyl 3,3-difluoro-5-[5-[(3R)-3-amino-5-[(4-chlorophenyl)methyl]-8-fluoro-1,1,4-trioxo-2,3-dihydro-1λ^6,5-benzothiazepin-7-yl]-1,3,4-oxadiazol-2-yl]piperidine-1-carboxylate], in the experiment with primary human T-cells [1] (Homo sapiens, T-cell, 120 h), the Emax was found to be 118% and the EC50 stood at 0.0514 µM. In the experiment with primary human T-cells [2], this molecule gave an EC50 of 0.0997 µM.

For `N[C@H]1CS(=O)(=O)c2cc(F)c(-c3nnc(CCF)o3)cc2N(Cc2ccc(Cl)cc2)C1=O` [Example 83, (3R)-3-Amino-5-[(4-chlorophenyl)methyl]-8-fluoro-7-[5-(2-fluoroethyl)-1,3,4-oxadiazol-2-yl]-1,1-dioxo-2,3-dihydro-1λ^6,5-benzothiazepin-4-one], in the experiment on primary human T-cells [1] (Homo sapiens, T-cell, 120 h), the Emax amounted to 27% and the EC50 is above 20 µM. The molecule further yielded an EC50 in the experiment with primary human T-cells [2] of 0.47 µM.

As for `CC(C)(C)c1nnc(-c2cc3c(cc2F)S(=O)(=O)C[C@H](N)C(=O)N3Cc2ccccc2Cl)o1` [Example 227, (3R)-3-amino-7-(5-tert-butyl-1,3,4-oxadiazol-2-yl)-5-[(2-chlorophenyl)methyl]-8-fluoro-1,1-dioxo-2,3-dihydro-1λ^6,5-benzothiazepin-4-one], in the experiment with primary human T-cells [1] (Homo sapiens, T-cell, 120 h), the Emax stood at 39% and the EC50 was above 20 µM. Also, the EC50 in the experiment on primary human T-cells [2] is above 20 µM.

For `N[C@H]1CS(=O)(=O)c2cc(F)c(-c3noc(C4(CO)CCCO4)n3)cc2N(Cc2ccc(OC(F)(F)F)cc2)C1=O` (stereo partly drawn) [Example 332, (3R)-3-amino-8-fluoro-7-[5-[2-(hydroxymethyl)tetrahydrofuran-2-yl]-1,2,4-oxadiazol-3-yl]-1,1-dioxo-5-[[4-(trifluoromethoxy)phenyl]methyl]-2,3-dihydro-1λ^6,5-benzothiazepin-4-one], in the experiment with primary human T-cells [1] (Homo sapiens, T-cell, 120 h), the Emax was determined as 128% and the EC50 came to 0.815 µM. The molecule further returned an EC50 in the experiment on primary human T-cells [2] of 0.747 µM.

On to `CC(C)(C)c1nnc(-c2cc3c(cc2F)S(=O)(=O)C[C@H](N)C(=O)N3Cc2ccc(OCC(N)=O)cc2)o1` [Example 236, 2-[4-[[(3R)-3-amino-7-(5-tert-butyl-1,3,4-oxadiazol-2-yl)-8-fluoro-1,1,4-trioxo-2,3-dihydro-1λ^6,5-benzothiazepin-5-yl]methyl]phenoxy]acetamide], for which the Emax in the experiment with primary human T-cells [1] (Homo sapiens, T-cell, 120 h) was 98%. Moreover, the EC50 with primary human T-cells [1] (Homo sapiens, T-cell, 120 h) was found to be 3.24 µM; with primary human T-cells [2], 3.23 µM.

As to `CC(C)(C#N)c1nnc(-c2ccc3c(c2)N(Cc2ccc(Cl)cc2)C(=O)[C@@H](N)CS3(=O)=O)o1` [Example 364, 2-[5-[(3R)-3-amino-5-[(4-chlorophenyl)methyl]-1,1,4-trioxo-2,3-dihydro-1λ^6,5-benzothiazepin-7-yl]-1,3,4-oxadiazol-2-yl]-2-methyl-propanenitrile], in the experiment on primary human T-cells [1] (Homo sapiens, T-cell, 120 h), the Emax was 108% and the EC50 was determined as 0.928 µM. In addition, in the experiment on primary human T-cells [2], the EC50 amounted to 0.981 µM.

For `N[C@H]1CS(=O)(=O)c2cc(F)c(-c3nnc(N4CCC5(CC4)CC(F)(F)CN5)o3)cc2N(Cc2ccc(Cl)cc2)C1=O` [Example 475, (3R)-3-amino-5-[(4-chlorophenyl)methyl]-7-[5-(3,3-difluoro-1,8-diazaspiro[4.5]decan-8-yl)-1,3,4-oxadiazol-2-yl]-8-fluoro-1,1-dioxo-2,3-dihydro-1λ^6,5-benzothiazepin-4-one; hydrochloride], the Emax in the experiment on primary human T-cells [1] (Homo sapiens, T-cell, 120 h) was determined as 85%. For the same molecule, the EC50 with primary human T-cells [1] (Homo sapiens, T-cell, 120 h) stood at 0.941 µM; with primary human T-cells [2], 4.24 µM.
